Test results from patent publication US10385036B2, “Sulfonamide-substituted indole modulators of RORC2 and methods of use thereof” (Pfizer Inc., priority 2015, dated 2019).
Read-outs that look alike come from different tables or passages of the source.

Legend:
[1] = system: IL-17 production from human Th17 cells; assay: Assay of IL-17 production from human Th17 cells; format: cell-based; settings: 144 h
Procedure: The activity of compound of the invention can be also be determined by an IL-17 production from human Th17 cells assay. In general, this assay measures blockade of IL-17 production, the signature cytokine of T helper 17 (Th17) cells, by compounds. Purified human CD4+ T cells are stimulated with anti-CD3+anti-CD28 and incubated with a cytokine cocktail that induce their differentiation into Th17 in the absence or presence of various concentrations of compound. After 6 days, IL-17A concentration is measured in the cell culture supernatant with an ELISA kit (MSD).
Preparation of human CD4+ T cells. CD4+ T cells were purified from buffy coats from healthy donors (obtained from Massachusetts General Hospital) by negative selection the following procedure: Mixing 25 mL of blood with 1 mL of Rosette Sep CD4+ T cell enrichment cocktail (StemCell Technologies) followed by application of a layer of 14 mL Ficoll Paque Plus (Amersham GE Healthcare) and subsequent centrifugation at 1200 g for 20 min at room temperature. The Ficoll layer was then harvested and washed with phosphate saline buffer containing 2% (v/v) fetal bovine serum and cells were resuspended with RPMI medium containing 10% (v/v) fetal bovine serum and 10% (v/v) DMSO, frozen and kept in LN2 until used.
[…] Serial dilutions of compounds of the invention are prepared at 10× final concentration in X-Vivo15 medium containing 3% (v/v) DMSO.
On the second day of the assay, a 384-well tissue culture plate was coated with 10 μg/mL anti-hCD3 (eBioscience) at 50 μL/well. After 2 hr at 37° C., the supernatant is discarded and the coated plates are kept in a sterile tissue culture hood.
The cytokine plus anti-CD28 cocktail with CD4+ cells is prepared such that the cocktail is diluted 10-fold and cell density is 0.22×10^6/mL. The mixture is incubated 1 hr at 37° C.
90 μL (20,000 cells) dispensed per well in the anti-hCD3 coated plate prepared as noted above.
10 μL 10× compound is added per well (final DMSO=0.3%) from the compound plate that was previously prepared, followed by 6 days of incubation in a tissue culture vessel in a humidified chamber at 37° C. and 5% CO2.
Measurement is carried out in a Sector Imager 6000 by the same manufacturer. Signal units from the instrument are converted to pg/mL using a calibration curve with known amounts of IL-17A. IC50 values of test compounds (Table 2) are determined by the non-linear regression analysis of dose response curves.

[2] = target: RORC2 ligand binding domain (6-His-RORC2 LBD) (Homo sapiens (Human), UniProt P51449); assay: Assay of co-activator recruitment by TR-FRET; format: biochemical; settings: 6-His-RORC2 LBD / biotin-coactivator peptide SRC1-2 interaction, 3 hr room temperature
Chain of RORC2 ligand binding domain (6-His-RORC2 LBD) (P51449 269-508): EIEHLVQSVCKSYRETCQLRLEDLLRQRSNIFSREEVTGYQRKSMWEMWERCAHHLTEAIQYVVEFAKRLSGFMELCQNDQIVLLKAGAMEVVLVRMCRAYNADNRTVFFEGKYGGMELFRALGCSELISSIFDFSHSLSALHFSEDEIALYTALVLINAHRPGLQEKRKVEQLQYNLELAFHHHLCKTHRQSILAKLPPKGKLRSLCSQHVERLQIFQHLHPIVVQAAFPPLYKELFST
Procedure: The activity of compound of the invention can be determined by a co-activator recruitment by TR-FRET (time-resolved fluorescence resonance energy transfer) assay. […] When receptor and coactivator are bound to each other, upon shining light at 337 nm on the sample, the Europium emits fluorescence that excites APC due to close proximity (FRET) and this signal is measured at 665 nm. Due to the long lasting fluorescence emission of Europium, the non-specific, short-lived fluorescence is time-resolved (TR) from the fluorescence of interest. Inhibitors of the interaction of receptor and coactivator peptide are detected by a decrease in TR-FRET signal.
Specifically, in one embodiment the aforementioned assay was performed as outlined below. The assay was carried out in black polystyrene, 384-well plates in a total assay volume of 50.5 μL. The assay buffer contained 50 mM TRIS-HCL pH 7.5, 1 mM NaCl, 2 mM MgCl2, 0.5 mg/mL bovine serum albumin, and 5 mM dithiothreitol.

[3] = IL-17A in supernatant by ELISA (MSD) after 6 days, human CD4+ T cells differentiated into Th17, read-out: IC50

| Structure (SMILES) | IC50 ([1]; Homo sapiens, CD4+ T) [nM] | IC50 [2] [nM] | IC50 [1, 3] [nM] |
| --- | --- | --- | --- |
| C[C@H]1CN(C(=O)C2CCCC2)CC[C@H]1c1cn(C)c2ccc(NS(=O)(=O)c3ccc(F)cc3)cc12 (single isomer, unassigned) [Example 3] | 121 |  |  |
| C[C@@H]1CN(C(=O)C2CCCC2)CC[C@@H]1c1cn(C)c2ccc(NS(=O)(=O)c3ccc(F)cc3)cc12 (single isomer, unassigned) [Example 4] | 137 |  |  |
| CC(C)C(=O)N1CC[C@@H](c2cn(C)c3ccc(NS(=O)(=O)c4ccc(F)cc4)cc23)[C@@H](C)C1 (single isomer, unassigned) [Example 5] |  | 5.1 | 90.3 |
| CC(C)C(=O)N1CC[C@@H](c2cn(C)c3ccc(NS(=O)(=O)c4ccc(F)cc4)cc23)CC1(C)C (single isomer, unassigned) [Example 18] |  | 7 | 19 |
| Cn1cc([C@@H]2CCN(C(=O)C3CCCC3)C(C)(C)C2)c2cc(NS(=O)(=O)c3ccc(F)cc3)ccc21 (single isomer, unassigned) [Example 19] |  | 3.7 | 191 |
| Cc1nn(C)c(C)c1S(=O)(=O)Nc1ccc2c(c1)c([C@@H]1CCN(C(=O)[C@H](C)C3CCCC3)C[C@@H]1C)cn2C (single isomer, unassigned) [Example 32] |  | 2.5 | 3.3 |
| CCOc1ccccc1S(=O)(=O)Nc1ccc2c(c1)c([C@@H]1CCN(C(=O)[C@H](C)C3CCCC3)C[C@@H]1C)cn2C (single isomer, unassigned) [Example 33] |  | 1.1 | 8.4 |
| C[C@@H](C(=O)N1CC[C@@H](c2cn(C)c3ccc(NS(=O)(=O)c4ccccc4F)cc23)[C@@H](C)C1)C1CCCC1 (single isomer, unassigned) [Example 34] | 4.2 |  |  |
| Cc1ccc(F)c(S(=O)(=O)Nc2ccc3c(c2)c([C@@H]2CCN(C(=O)[C@H](C)C4CCCC4)C[C@@H]2C)cn3C)c1 (single isomer, unassigned) [Example 35] | 8.4 |  |  |
| C[C@H]1CN(C(=O)[C@H](C)C(C)(C)C)CC[C@H]1c1cn(C)c2ccc(NS(=O)(=O)c3ccc(F)cc3)cc12 [Example 1, 4-fluoro-N-(1-methyl-3-((3R,4R)-3-methyl-1-((R)-2,3,3-trimethylbutanoyl)piperidin-4-yl)-1H-indol-5-yl)benzenesulfonamide] |  | 8.2 | 13.5 |
| C[C@@H](C(=O)N1CC[C@@H](c2cn(C)c3ccc(NS(=O)(=O)c4ccc(F)cc4)cc23)[C@@H](C)C1)C1CCCC1 [Example 2, N-(3-((3R,4R)-1-((R)-2-cyclopentylpropanoyl)-3-methylpiperidin-4-yl)-1-methyl-1H-indol-5-yl)-4-fluorobenzenesulfonamide] | 4.8 |  |  |
| Cn1cc(C2CCN(C(=O)c3ccns3)CC2)c2cc(NS(=O)(=O)c3ccc(F)cc3)ccc21 [Example 6, 4-fluoro-N-(3-(1-(isothiazole-5-carbonyl)piperidin-4-yl)-1-methyl-1H-indol-5-yl)benzenesulfonamide] |  | 75.9 | 276 |
| C[C@@H](C(=O)N1CCC(c2cn(C)c3ccc(NS(=O)(=O)c4ccc(F)cc4)cc23)CC1)C1CCCC1 [Example 7, (R)-N-(3-(1-(2-cyclopentylpropanoyl)piperidin-4-yl)-1-methyl-1H-indol-5-yl)-4-fluorobenzenesulfonamide] |  | 4.5 | 28.1 |
| Cn1cc(C2CCN(C(=O)C3CC3)CC2)c2cc(NS(=O)(=O)c3ccc(F)cc3)ccc21 [Example 8, N-(3-(1-(cyclopropanecarbonyl)piperidin-4-yl)-1-methyl-1H-indol-5-yl)-4-fluorobenzenesulfonamide] |  | 17.1 | 184 |
| CC(CC(=O)N1CCC(c2cn(C)c3ccc(NS(=O)(=O)c4ccc(F)cc4)cc23)CC1)C(F)(F)F (stereo not drawn) [Example 9, 4-fluoro-N-(1-methyl-3-(1-(4,4,4-trifluoro-3-methylbutanoyl)piperidin-4-yl)-1H-indol-5-yl)benzenesulfonamide] |  | 14.8 | 99.1 |
| C[C@@H](C(=O)N1CCC(c2cn(C)c3ccc(NS(=O)(=O)c4ccc(F)cc4)cc23)CC1)C(C)(C)C [Example 10, (R)-4-fiuoro-N-(1-methyl-3-(1-(2,3,3-trimethylbutanoyl)piperidin-4-yl)-1H-indol-5-yl)benzenesulfonamide] | 29 |  |  |
| Cn1cc(C2CCN(C(=O)C3CCC3)CC2)c2cc(NS(=O)(=O)c3ccc(F)cc3)ccc21 [Example 11, N-(3-(1-(cyclobutanecarbonyl)piperidin-4-yl)-1-methyl-1H-indol-5-yl)-4-fluorobenzenesulfonamide] |  | 28.8 | 148 |
| CC(C)CC(=O)N1CCC(c2cn(C)c3ccc(NS(=O)(=O)c4ccc(F)cc4)cc23)CC1 [Example 12, 4-Fluoro-N-(1-methyl-3-(1-(3-methylbutanoyl)piperidin-4-yl)-1H-indol-5-yl)benzenesulfonamide] |  | 7.8 | 127 |
| Cn1cc(C2CCN(C(=O)C3CCCCC3)CC2)c2cc(NS(=O)(=O)c3ccc(F)cc3)ccc21 [Example 14, N-(3-(1-(cyclohexanecarbonyl)-piperidin-4-yl)-1-methyl-1H-indol-5-yl)-4-fluorobenzenesulfonamide] | 221 |  |  |
| C[C@H]1C[C@@H](c2cn(C)c3ccc(NS(=O)(=O)c4ccc(F)cc4)cc23)CCN1C(=O)C1CCCC1 [Example 20, N-(3-((2S,4S)-1-(cyclopentanecarbonyl)-2-methylpiperidin-4-yl)-1-methyl-1H-indol-5-yl)-4-fluorobenzenesulfonamide] | 633 |  |  |
| C[C@H]1C[C@H](c2cn(C)c3ccc(NS(=O)(=O)c4ccc(F)cc4)cc23)CCN1C(=O)C1CCCC1 [Example 21, N-(3-((2S,4R)-1-(cyclopentanecarbonyl)-2-methylpiperidin-4-yl)-1-methyl-1H-indol-5-yl)-4-fluorobenzenesulfonamide] | 88.7 |  |  |
| CC(C)C(=O)N1CCC(c2cn(C)c3ccc(NS(=O)(=O)c4ccc(F)c(O)c4)cc23)CC1 [Example 23, 4-fluoro-3-hydroxy-N-(3-(1-isobutyrylpiperidin-4-yl)-1-methyl-1H-indol-5-yl)benzenesulfonamide] | 1460 |  |  |
| CC(C)C(=O)N1CCC(c2cn(C)c3ccc(NS(=O)(=O)c4ccc(F)c(O[C@@H]5CCOC5)c4)cc23)CC1 [Example 24, (R)-4-fluoro-N-(3-(1-isobutyrylpiperidin-4-yl)-1-methyl-1H-indol-5-yl)-3-((tetrahydrofuran-3-yl)oxy)benzenesulfonamide] | 69.5 |  |  |
| Cc1ccc(S(=O)(=O)Nc2ccc3c(c2)c(C2CCN(C(=O)[C@H](C)C(C)(C)C)CC2)cn3C)cc1 [Example 25, (R)-4-methyl-N-(1-methyl-3-(1-(2,3,3-trimethylbutanoyl)piperidin-4-yl)-1H-indol-5-yl)benzenesulfonamide] | 10.6 |  |  |
| CCOc1ccccc1S(=O)(=O)Nc1ccc2c(c1)c(C1CCN(C(=O)[C@H](C)C(C)(C)C)CC1)cn2C [Example 27, (R)-2-ethoxy-N-(1-methyl-3-(1-(2,3,3-trimethylbutanoyl)piperidin-4-yl)-1H-indol-5-yl)benzenesulfonamide] | 16 |  |  |
| C[C@@H](C(=O)N1CCC(c2cn(C)c3ccc(NS(=O)(=O)c4ccccc4F)cc23)CC1)C(C)(C)C [Example 28, (R)-2-fluoro-N-(1-methyl-3-(1-(2,3,3-trimethylbutanoyl)piperidin-4-yl)-1H-indol-5-yl)benzenesulfonamide] | 11.4 |  |  |
| C[C@@H](C(=O)N1CCC(c2cn(C)c3ccc(NS(=O)(=O)c4ccccc4)cc23)CC1)C(C)(C)C [Example 29, (R)-N-(1-methyl-3-(1-(2,3,3-trimethylbutanoyl)piperidin-4-yl)-1H-indol-5-yl)benzenesulfonamide] | 28.5 |  |  |
